{"source": "patent US10196357B2", "about": "“Biaryl compositions and methods for modulating a kinase cascade” (Athenex, Inc., priority 2007, dated 2019)", "key": {"HT29 cell line": {"test_system": "HT29 cell line", "assay": "BrdU cell growth inhibition, HT29", "assay_type": "cell-based, human", "conditions": "Homo sapiens, read-out: GI50", "method_in_brief": "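HT29 colon carcinoma cells treated with compounds diluted from 20 mM DMSO stocks into DMEM/10% FBS. Proliferation read as colorimetric BrdU incorporation ELISA; GI calculated relative to untreated cells at time 0 and control cells at day n, with GI50 extrapolated. Net cell loss below time-0 level scored as cytotoxicity.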"}, "c-Src 3T3 cells": {"test_system": "c-Src 3T3 cells", "assay": "BrdU cell growth inhibition, c-Src 3T3", "assay_type": "cell-based, mouse", "conditions": "Mus musculus; c-Src 3T3 (c-Src527F/NIH3T3) cells; read-out: GI50", "method_in_brief": "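c-Src 3T3 cells on poly-D-lysine plates in DMEM with 2% FBS, L-glutamine, pyruvate and 10 mM HEPES. Compounds came from 20 mM DMSO stocks diluted in DMEM/10% FBS. Proliferation was read by colorimetric BrdU-incorporation ELISA, and GI50 was extrapolated from growth relative to time-zero and untreated controls.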"}, "[1]": {"test_system": "lung cancer cell line A549", "assay": "tumor growth inhibition, A549", "assay_type": "cell-based, Human", "conditions": "Homo sapiens, A549, A549, BrdU, T=72", "excerpt": "(§1) Growth Inhibition. […] T1 values≤T0 values were designated as T, cytotoxicity."}, "MDA231 (Breast)": {"test_system": "MDA231 (Breast)", "assay": "growth inhibition (BrdU), MDA231", "assay_type": "cell-based, Human", "conditions": "Homo sapiens, MDA-MB-231, MDA-MB-321, BrdU, T=72", "excerpt": "as §1"}, "isolated Src": {"target": "isolated Src (Homo sapiens, UniProt P12931)", "sequence (P12931 whole entry)": "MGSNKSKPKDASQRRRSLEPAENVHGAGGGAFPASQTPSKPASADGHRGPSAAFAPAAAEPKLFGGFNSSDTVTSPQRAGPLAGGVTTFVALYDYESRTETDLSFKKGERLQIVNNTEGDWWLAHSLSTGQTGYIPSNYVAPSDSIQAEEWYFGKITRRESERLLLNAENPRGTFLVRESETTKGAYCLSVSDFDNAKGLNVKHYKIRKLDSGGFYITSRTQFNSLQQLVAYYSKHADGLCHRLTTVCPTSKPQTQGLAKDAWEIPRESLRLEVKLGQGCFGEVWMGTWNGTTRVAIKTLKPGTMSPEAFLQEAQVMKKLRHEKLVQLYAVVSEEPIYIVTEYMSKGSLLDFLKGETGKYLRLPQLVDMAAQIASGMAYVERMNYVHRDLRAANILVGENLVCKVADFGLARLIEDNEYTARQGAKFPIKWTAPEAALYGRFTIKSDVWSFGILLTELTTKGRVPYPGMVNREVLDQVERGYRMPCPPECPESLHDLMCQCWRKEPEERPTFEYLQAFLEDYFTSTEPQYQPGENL", "assay": "titration against isolated Src", "assay_type": "biochemical", "conditions": "titration data"}, "[2]": {"test_system": "PDGF receptor tyrosine kinase Y572/574", "assay": "PDGF receptor autophosphorylation in cells", "assay_type": "cell-based", "conditions": "c-Src527F/NIH-3T3 cells", "method": "HT29 (colon cancer) and c-Src527F/NIH-3T3 (Src transformed) cell lines were treated with KX2-391 or with AstraZeneca's ATP competitive Src inhibitor AZ28. AZ28 serves as a positive comparator to show what a validated Src inhibitor should do in these assays. After treatment with compound, cells were lysed, subjected to PAGE and probed with a battery of antibodies. […] In addition, off-target protein phosphorylation was also investigated. Further, induction of apoptosis was evaluated via Caspase 3 cleavage. Multiple doses of each compound were tested because the trends in response to increasing drug concentration are the most reliable indicator of activity.\nThe same range of multiples of the GI50 for AZ28 in these two cell lines was run as a comparison.\nThis is thought not to be a direct Src substrate in cells."}, "[3]": {"assay": "plasma exposure after oral administration", "assay_type": "in vivo, male CD-1 mice", "conditions": "for concentration at 0.5 h / concentration at 1 h / concentration at 2 h / concentration at 5 h / AUC(0-t) / Cmax / Tmax: male, CD-1, mouse; for concentration at 0.5 h / concentration at 1 h / concentration at 2 h / concentration at 5 h: plasma, po; for AUC(0-t) / Cmax / Tmax: Plasma", "method": "Plasma concentrations were measured in mice after oral administration. All doses were formulated in purified water. Four groups of male CD-1 mice were dosed after an overnight fast and fed 4 hours post-dose. Dosing was as follows:\nProtein was precipitated with 0.25 mL acetonitrile for plasma, 0.25 mL for brain. After centrifugation, supernatant was directly injected into an LC/MS system. The limit of quantitation was 1 ng/mL using a 50 μL aliquot for plasma and a 50 μL, aliquot for brain. The standard curve was 1 to 1,000 ng/mL for both plasma and brain. HPLC conditions were as follows:\nHPLC System: Shimadzu SCL-10 System\n• Analytical Column: Aquasil C18 5 μm 100×2 mm column. • Column Temperature: Ambient temperature • Autosampler Temperature: Ambient temperature • Mobile Phase A) 10 mM Ammonium formate in water (pH 4). • B) Acetonitrile. • Flow Rate: 0.6 mL/min • Injection Volume: 2 μL • Gradient:\n• Mass Spectrometry Conditions were as follows: • Instrument: ABI Sciex API 4000 • Mode: ESI+ • Experiment: MRM (multiple reaction monitoring) • Transitions: KX2-391: m/z 432.4→114.2 (Rt=3.11 minute) • KX2-361: m/z 406.1→253.2 (Rt=3.33 minute)"}, "[4]": {"assay": "body weight in GL261 glioma survival study", "assay_type": "in vivo", "conditions": "5 mg/kg, C57BL/6 mice", "method": "A brain tumor mouse xenograft study was conducted comparing KX2-361 and KX2-391 (KXO1) to Temodar®. The studies were conducted in C57BL/6 mice. GL261 glioma cells (1×10^5 in 5 μl DMEM) were implanted intracranial coordinates: bregma, lateral 2.0 mm, anterior 1.2 mm, 3.0 mm depth dura. Treatment was initiated 3 days post implantation. The groups were as follows (all doses in 100 μl H2O):\nFIGS. 49A-E show the weight gain in each of the C57BL/6 mice in the different treatment groups. The average weight at endpoint for each of the treatment groups is shown below in Table 30. FIG. 50 is a graph showing the average weights over a 40-day period for each of the treatment groups."}}, "note": "Values joined by “and” are separate entries in the source; they are usually repeats but may differ in a detail not shown here. Identical values can stand only once. Like-named read-outs stand apart in the source and are kept apart here."}
{"compound": "O=C(Cc1ccc(-c2ccc(OCCN3CCOCC3)cc2)cn1)NCc1ccccc1", "note": "[KX2-391]", "values": [{"measurement": "GI50", "setting": "HT29 cell line; HT-29, HT29 (Colon) cells", "result": 23, "unit": "nM"}, {"measurement": "GI50", "setting": "HT29 cell line; HT-29, HT-29, BrdU, T=72", "result": 15.4, "unit": "nM"}, {"measurement": "GI50", "setting": "c-Src 3T3 cells", "result": 13, "unit": "nM"}, {"measurement": "GI50", "setting": "[1]", "result": 9.39, "unit": "nM"}, {"measurement": "GI50", "setting": "MDA231 (Breast)", "result": 19.8, "unit": "nM"}, {"measurement": "IC50", "setting": "isolated Src", "result": 46000, "unit": "nM"}, {"measurement": "PDGF receptor Y572/574 autophosphorylation", "setting": "[2]", "result": "Some effect"}, {"measurement": "concentration at 0.5 h", "setting": "[3]; 10 mg/kg, single PO dose 10 mg/kg (Group 1), 0.5 hr, read-out: Plasma Concentrations, Group A, B, C", "result": 779, "unit": "ng/mL"}, {"measurement": "concentration at 0.5 h", "setting": "[3]; 10 mg/kg, single PO dose 10 mg/kg (Group 1), 0.5 hr, read-out: Plasma Concentrations, Mean", "result": 871, "unit": "ng/mL"}, {"measurement": "concentration at 1 h", "setting": "[3]; 10 mg/kg, single PO dose 10 mg/kg (Group 1), 1 hr, read-out: Plasma Concentrations, Mean", "result": 363, "unit": "ng/mL"}, {"measurement": "concentration at 2 h", "setting": "[3]; 10 mg/kg, single PO dose 10 mg/kg (Group 1), 2 hr, read-out: Plasma Concentrations, Group A, B, C", "result": 328, "unit": "ng/mL"}, {"measurement": "concentration at 2 h", "setting": "[3]; 10 mg/kg, single PO dose 10 mg/kg (Group 1), 2 hr, read-out: Plasma Concentrations, Mean", "result": 287, "unit": "ng/mL"}, {"measurement": "concentration at 5 h", "setting": "[3]; 10 mg/kg, single PO dose 10 mg/kg (Group 1), 5 hr, read-out: Plasma Concentrations, Group A, B, C", "result": 133, "unit": "ng/mL"}, {"measurement": "concentration at 5 h", "setting": "[3]; 10 mg/kg, single PO dose 10 mg/kg (Group 1), 5 hr, read-out: Plasma Concentrations, Mean", "result": 147, "unit": "ng/mL"}, {"measurement": "concentration at 0.5 h", "setting": "[3]; 50 mg/kg, single PO dose 50 mg/kg (Group 2), 0.5 hr, read-out: Plasma Concentrations, Group A, B, C", "result": 8510, "unit": "ng/mL"}, {"measurement": "concentration at 0.5 h", "setting": "[3]; 50 mg/kg, single PO dose 50 mg/kg (Group 2), 0.5 hr, read-out: Plasma Concentrations, Mean", "result": 9720, "unit": "ng/mL"}, {"measurement": "concentration at 1 h", "setting": "[3]; 50 mg/kg, single PO dose 50 mg/kg (Group 2), 1 hr, read-out: Plasma Concentrations, Group A, B, C", "result": 2370, "unit": "ng/mL"}, {"measurement": "concentration at 1 h", "setting": "[3]; 50 mg/kg, single PO dose 50 mg/kg (Group 2), 1 hr, read-out: Plasma Concentrations, Mean", "result": 2060, "unit": "ng/mL"}, {"measurement": "concentration at 2 h", "setting": "[3]; 50 mg/kg, single PO dose 50 mg/kg (Group 2), 2 hr, read-out: Plasma Concentrations, Group A, B, C", "result": 1150, "unit": "ng/mL"}, {"measurement": "concentration at 2 h", "setting": "[3]; 50 mg/kg, single PO dose 50 mg/kg (Group 2), 2 hr, read-out: Plasma Concentrations, Mean", "result": 1510, "unit": "ng/mL"}, {"measurement": "concentration at 5 h", "setting": "[3]; 50 mg/kg, single PO dose 50 mg/kg (Group 2), 5 hr, read-out: Plasma Concentrations, Mean", "result": 922, "unit": "ng/mL"}, {"measurement": "AUC(0-t)", "setting": "[3]; single oral dose 10 mg/kg", "result": 1500, "unit": "ng·h/mL"}, {"measurement": "Cmax", "setting": "[3]; single oral dose 10 mg/kg", "result": 871, "unit": "ng/mL"}, {"measurement": "Tmax", "setting": "[3]; single oral dose 10 mg/kg", "result": 30, "unit": "min"}, {"measurement": "AUC(0-t)", "setting": "[3]; single oral dose 50 mg/kg", "result": 10800, "unit": "ng·h/mL"}, {"measurement": "Cmax", "setting": "[3]; single oral dose 50 mg/kg", "result": 9720, "unit": "ng/mL"}, {"measurement": "Tmax", "setting": "[3]; single oral dose 50 mg/kg", "result": 30, "unit": "min"}, {"measurement": "Plasma Concentrations, Group A, B, C", "setting": "[3]; single PO dose 10 mg/kg (Group 1), 0.5 hr, 10 mg/kg", "result": "1096.62 ng/mL and 737.37 ng/mL"}, {"measurement": "Plasma Concentrations, Group A, B, C", "setting": "[3]; single PO dose 10 mg/kg (Group 1), 2 hr, 10 mg/kg", "result": "271.89 ng/mL and 261.57 ng/mL"}, {"measurement": "Plasma Concentrations, Group A, B, C", "setting": "[3]; single PO dose 10 mg/kg (Group 1), 5 hr, 10 mg/kg", "result": "147.74 ng/mL and 160.62 ng/mL"}, {"measurement": "Plasma Concentrations, Group A, B, C", "setting": "[3]; single PO dose 50 mg/kg (Group 2), 0.5 hr, 50 mg/kg", "result": "8334.53 ng/mL and 12315.31 ng/mL"}, {"measurement": "Plasma Concentrations, Group A, B, C", "setting": "[3]; single PO dose 50 mg/kg (Group 2), 1 hr, 50 mg/kg", "result": "2442.20 ng/mL and 1365.56 ng/mL"}, {"measurement": "Plasma Concentrations, Group A, B, C", "setting": "[3]; single PO dose 50 mg/kg (Group 2), 2 hr, 50 mg/kg", "result": "1546.09 ng/mL and 1850.18 ng/mL"}, {"measurement": "Average weight at endpoint", "setting": "[4]", "result": 14.3, "unit": "g"}]}
